The record followed here is ChEMBL document CHEMBL1157972, “Biotransformation of (-)-ambrox by cell suspension cultures of Actinidia deliciosa” (J Nat Prod, 2006).

pIC50: −log10 of the molar value. Active and inactive are the calls of the source. The rule behind the calls is not given here.

The first assay deals with Thymidine phosphorylase (Escherichia coli K-12, UniProt P07650). The experiment in a line: (§1) Inhibition of Escherichia coli thymidine phosphorylase by spectrophotometry.
Chain of Thymidine phosphorylase (P07650 whole entry): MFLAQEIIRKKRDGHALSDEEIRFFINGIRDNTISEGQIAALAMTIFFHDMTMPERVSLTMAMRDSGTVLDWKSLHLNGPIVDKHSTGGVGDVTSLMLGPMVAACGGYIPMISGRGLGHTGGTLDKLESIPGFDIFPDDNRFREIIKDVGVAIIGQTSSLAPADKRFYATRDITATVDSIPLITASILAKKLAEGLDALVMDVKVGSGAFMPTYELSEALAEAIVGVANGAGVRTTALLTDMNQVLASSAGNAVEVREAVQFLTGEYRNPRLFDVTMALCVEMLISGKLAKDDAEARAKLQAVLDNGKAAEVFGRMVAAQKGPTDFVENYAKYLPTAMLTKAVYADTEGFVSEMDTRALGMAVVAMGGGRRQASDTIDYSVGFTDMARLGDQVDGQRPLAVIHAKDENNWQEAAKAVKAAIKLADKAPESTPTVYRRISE
In turn, `CC1(C)[C@@H](O)CC[C@]2(C)[C@H]3CCO[C@]3(C)C[C@@H](O)[C@@H]12` gave a pIC50 of 4.09.

Turning to `CC1(C)CC[C@H](O)[C@]2(C)[C@H]3CCO[C@]3(C)C[C@@H](O)[C@@H]12`, the pIC50 was 4.14.

A further assay deals with Thymidine phosphorylase (Escherichia coli K-12) (UniProt P07650). The assay is described as §1.
Chain of Thymidine phosphorylase (Escherichia coli K-12) (P07650 whole entry, looked up): as the sequence (P07650 whole entry) above
For `CC1(C)[C@@H](O)C[C@H](O)[C@]2(C)[C@H]3CCO[C@]3(C)CC[C@@H]12`, the outcome was inactive.

Take `CC1(C)CCC[C@]2(C)[C@H]3CCO[C@]3(C)CC[C@@H]12`: the outcome was inactive.

For `CC1(C)[C@@H](O)CC[C@]2(C)[C@H]3CCO[C@]3(C)CC[C@@H]12`, the result was inactive.

As to `CC1(C)C(=O)CC[C@]2(C)[C@H]3CCO[C@]3(C)CC[C@@H]12`, the result was inactive.

As for `CC1(C)CC[C@H](O)[C@]2(C)[C@H]3CCO[C@]3(C)CC[C@@H]12`, the outcome was inactive.

Usually pIC50 stands for the negative decadic logarithm of the IC50, by convention in mol/L. Read a high pIC50 as a low IC50.
